# Test results: US20140005163A1 (NOVARTIS AG, priority 2010, published 2014)
# Key:
# PI3K alpha = target: T1, PI3K alpha (Homo sapiens, UniProt P42336); assay: PI3K alpha kinase assay (Kinase-Glo luminescence); format: biochemical
# T1 construct: p85(iSH2) fusion partner (see partner chain) (N); His tag (C); made in house; host or cells: baculovirus; Tn5 (Trichoplusia ni) or TiniPro insect cells
# Summary of the method: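 Enzyme 10 nM PI3Kα EMV B1075; ATP 1 μM; PI 10 μg/mL; Tris-HCl pH 7.5 10 mM, MgCl2 3 mM, NaCl 50 mM, CHAPS 0.05%, DTT 1 mM; 60 min RT; Kinase-Glo luminescence; 4-parameter IC50 fit, 8 concentrations, single points.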
# [1] = tested on: PKB Ser473 phosphorylation in Rat1-myr-HA-p110 alpha cells; assay: Reverse protein array assay, PKB Ser473 phosphorylation in Rat1-myr-p110 alpha cells; format: cell-based; settings: 0.5 h, pAkt Ser473, 30 minutes compound incubation, read-out: p-PKB IC50
# Summary of the method: (§1)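 Measured: PKB Ser473 phosphorylation by reverse protein array in Rat1 cells expressing myr-HA-p110 alpha, beta or delta, after 30 min compound treatment at 37 °C with 0.2% DMSO vehicle.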
# [2] = tested on: PKB Ser473 phosphorylation in Rat1-myr-HA-p110 beta cells; assay: Reverse protein array assay, PKB Ser473 phosphorylation in Rat1-myr-p110 beta cells; format: cell-based; settings: 0.5 h, pAkt Ser473, 30 minutes incubation, read-out: p-PKB IC50
# Summary of the method: as §1
# [3] = tested on: S6 Ribosomal Protein phosphorylation Ser235/236 in TSC1 null mouse embryo fibroblast (MEF) cells; assay: Reverse protein array assay, S6 Ribosomal Protein phosphorylation Ser235/236 in TSC1 null MEF cells; format: cell-based; settings: 1 h, pS6 ribosomal protein Ser235/236, 60 minutes incubation, read-out: p-S6 IC50
# Summary of the method: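 TSC1−/− MEFs, seeded and held ≥20 h at 37 °C/5% CO2, were exposed to 8-step serial compound dilutions (0.02% DMSO final; DMSO vehicle control) for 60 min at 37 °C. Cells were then lysed on ice for 10 min and lysates spotted onto reverse protein array chips.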
# T1 sequence (P42336 with tags, fused parts or gaps limits assumed): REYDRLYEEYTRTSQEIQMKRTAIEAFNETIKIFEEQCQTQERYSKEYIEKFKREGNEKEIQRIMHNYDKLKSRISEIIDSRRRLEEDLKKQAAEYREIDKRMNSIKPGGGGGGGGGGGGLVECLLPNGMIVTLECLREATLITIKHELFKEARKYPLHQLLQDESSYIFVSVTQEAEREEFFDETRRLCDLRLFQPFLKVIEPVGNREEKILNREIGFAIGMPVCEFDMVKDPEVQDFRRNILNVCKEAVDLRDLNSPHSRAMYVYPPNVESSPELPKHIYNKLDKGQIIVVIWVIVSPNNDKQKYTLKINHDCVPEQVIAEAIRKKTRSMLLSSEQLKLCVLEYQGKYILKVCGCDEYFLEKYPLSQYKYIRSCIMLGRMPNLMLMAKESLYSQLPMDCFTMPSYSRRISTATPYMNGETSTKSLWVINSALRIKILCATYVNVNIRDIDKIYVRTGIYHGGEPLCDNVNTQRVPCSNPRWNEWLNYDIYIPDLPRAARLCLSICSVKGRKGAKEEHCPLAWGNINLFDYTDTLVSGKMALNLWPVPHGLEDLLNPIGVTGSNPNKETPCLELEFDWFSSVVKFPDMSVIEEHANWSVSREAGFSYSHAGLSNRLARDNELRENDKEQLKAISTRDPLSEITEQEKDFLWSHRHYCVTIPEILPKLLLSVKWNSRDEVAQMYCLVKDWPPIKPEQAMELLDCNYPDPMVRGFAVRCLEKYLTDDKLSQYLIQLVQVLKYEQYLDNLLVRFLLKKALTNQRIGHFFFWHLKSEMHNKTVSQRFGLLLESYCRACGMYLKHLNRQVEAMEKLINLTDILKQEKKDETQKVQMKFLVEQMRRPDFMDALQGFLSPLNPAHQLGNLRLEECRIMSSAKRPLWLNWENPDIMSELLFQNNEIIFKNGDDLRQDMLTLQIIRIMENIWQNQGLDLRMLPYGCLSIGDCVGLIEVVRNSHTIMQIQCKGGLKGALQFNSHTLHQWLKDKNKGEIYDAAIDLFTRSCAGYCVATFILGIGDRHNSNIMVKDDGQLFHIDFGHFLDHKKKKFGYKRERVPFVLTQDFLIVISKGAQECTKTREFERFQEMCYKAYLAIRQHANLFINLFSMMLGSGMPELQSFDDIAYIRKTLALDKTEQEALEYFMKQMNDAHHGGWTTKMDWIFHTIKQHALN
SMILES,IC50 (PI3K alpha),IC50 [1],IC50 [2],IC50 [3]
"CCOc1ncc(-c2ccc3ncc4c(c3c2)n(-c2cn(C)nc2C)c(=O)n4C)cn1 [Example 52, 1-(1,3-Dimethyl-1H-pyrazol-4-yl)-8-(2-ethoxy-pyrimidin-5-yl)-3-methyl-1,3-dihydro-imidazo[4,5-c]quinolin-2-one]",56 nM,6 nM,9 nM,48 nM
"CCNc1cc(-c2ccc3ncc4c(c3c2)n(-c2c(C)nn(C)c2C)c(=O)n4C)cnc1CO [Example 155.4, 8-(5-Ethylamino-6-hydroxymethyl-pyridin-3-yl)-3-methyl-1-(1,3,5-trimethyl-1H-pyrazol-4-yl)-1,3-dihydro-imidazo[4,5-c]quinolin-2-one]",125 nM,88 nM,47 nM,18 nM
"CCOc1ccc(-c2ccc3ncc4c(c3c2)n(-c2cn(CC(=O)N(C)CC)nc2C)c(=O)n4C)cn1 [Example 136, 2-{4-[8-(6-Ethoxy-pyridin-3-yl)-3-methyl-2-oxo-2,3-dihydro-imidazo[4,5-c]quinolin-1-yl]-3-methyl-pyrazol-1-yl}-N-ethyl-N-methyl-acetamide]",25 nM,11 nM,16 nM,3 nM
"COc1ncc(-c2ccc3ncc4c(c3c2)n(-c2cn(C)nc2C)c(=O)n4C)cn1 [Example 17.2, 1-(1,3-Dimethyl-1H-pyrazol-4-yl)-8-(2-methoxy-pyrimidin-5-yl)-3-methyl-1,3-dihydro-imidazo[4,5-c]quinolin-2-one]",56 nM,19 nM,40 nM,33 nM
"CCOc1cc(-c2ccc3ncc4c(c3c2)n(-c2cn(C)nc2C)c(=O)n4C)ccn1 [Example 91, 1-(1,3-Dimethyl-1H-pyrazol-4-yl)-8-(2-ethoxy-pyridin-4-yl)-3-methyl-1,3-dihydro-imidazo[4,5-c]quinolin-2-one]",83 nM,234 nM,391 nM,36 nM
"Cc1nn(C(C)C)cc1-n1c(=O)n(C)c2cnc3ccc(-c4cnc(F)c(N)c4)cc3c21 [Example 149.1, 8-(5-Amino-6-fluoro-pyridin-3-yl)-1-(1-isopropyl-3-methyl-1H-pyrazol-4-yl)-3-methyl-1,3-dihydro-imidazo[4,5-c]quinolin-2-one]",48 nM,31 nM,66 nM,9 nM
"CCNc1cc(-c2ccc3ncc4c(c3c2)n(-c2cn(C(C)C)nc2C)c(=O)n4C)cnc1CO [Example 155.3, 8-(5-Ethylamino-6-hydroxymethyl-pyridin-3-yl)-1-(1-isopropyl-3-methyl-1H-pyrazol-4-yl)-3-methyl-1,3-dihydro-imidazo[4,5-c]quinolin-2-one]",30 nM,< 5 nM,< 5 nM,1 nM
"Cc1nn(C(C)C)cc1-n1c(=O)n(C)c2cnc3ccc(-c4ccc(CO)nc4)cc3c21 [Example 16.3, 8-(6-hydroxymethyl-pyridin-3-yl)-1-(1-isopropyl-3-methyl-1H-pyrazol-4-yl)-3-methyl-1,3-dihydro-imidazo[4,5-c]quinolin-2-one]",59 nM,67 nM,39 nM,61 nM
"Cc1nn(C)cc1-n1c(=O)n(C)c2cnc3ccc(-c4ccc(N5CC[C@@H](O)C5)nc4)cc3c21 [Example 212.1, 1-(1,3-Dimethyl-1H-pyrazol-4-yl)-8-[6-((R)-3-hydroxy-pyrrolidin-1-yl)-pyridin-3-yl]-3-methyl-1,3-dihydro-imidazo[4,5-c]quinolin-2-one]",53 nM,135 nM,199 nM,7 nM
"CCOc1ccc(-c2ccc3ncc4c(c3c2)n(-c2c(C)nn(CC(=O)N(C)C)c2C)c(=O)n4C)cn1 [Example 3.12, 2-{4-[8-(6-Ethoxy-pyridin-3-yl)-3-methyl-2-oxo-2,3-dihydro-imidazo[4,5-c]quinolin-1-yl]-3,5-dimethyl-pyrazol-1-yl}-N,N-dimethyl-acetamide]",57 nM,128 nM,166 nM,175 nM

# Stronger by IC50 (PI3K alpha), values ahead:
IC50 (PI3K alpha),IC50 [1],IC50 [2],SMILES,IC50 [3]
14 nM,< 5 nM,9 nM,"CNc1ncc(-c2ccc3ncc4c(c3c2)n(-c2cn(C)nc2C)c(=O)n4C)cc1Cl [Example 146.1, 8-(5-Chloro-6-methylamino-pyridin-3-yl)-1-(1,3-dimethyl-1H-pyrazol-4-yl)-3-methyl-1,3-dihydro-imidazo[4,5-c]quinolin-2-one]",< 0.5 nM
14 nM,65 nM,63 nM,"Cc1nn(C)cc1-n1c(=O)[nH]c2cnc3ccc(-c4cnc(N(C)C)nc4)cc3c21 [Example 207, 8-(2-Dimethylamino-pyrimidin-5-yl)-1-(1,3-dimethyl-1H-pyrazol-4-yl)-1,3-dihydro-imidazo[4,5-c]quinolin-2-one]",22 nM
10 nM,19 nM,17 nM,"CCNc1cc(-c2ccc3ncc4c(c3c2)n(-c2c(C)nn(C)c2C)c(=O)n4C)cnc1Cl [Example 153.1, 8-(6-Chloro-5-ethylamino-pyridin-3-yl)-3-methyl-1-(1,3,5-trimethyl-1H-pyrazol-4-yl)-1,3-dihydro-imidazo[4,5-c]quinolin-2-one]",4 nM
16 nM,25 nM,21 nM,"CNC(=O)c1ccc(-c2ccc3ncc4c(c3c2)n(-c2cn(C)nc2C)c(=O)n4C)cn1 [Example 15.1, 5-[1-(1,3-Dimethyl-1H-pyrazol-4-yl)-3-methyl-2-oxo-2,3-dihydro-1H-imidazo[4,5-c]quinolin-8-yl]-pyridine-2-carboxylic acid methylamide]",11 nM
5 nM,76 nM,266 nM,"Cc1nn(CC(=O)N2CCC2)cc1-n1c(=O)n(C)c2cnc3ccc(-c4cncc(OC(C)C)c4)cc3c21 [Example 205, 1-[1-(2-Azetidin-1-yl-2-oxo-ethyl)-3-methyl-1H-pyrazol-4-yl]-8-(5-isopropoxy-pyridin-3-yl)-3-methyl-1,3-dihydro-imidazo[4,5-c]quinolin-2-one]",37 nM
17 nM,< 5 nM,7 nM,"CCN(C)c1cncc(-c2ccc3ncc4c(c3c2)n(-c2cn(C)nc2C)c(=O)n4C)c1 [Example 176, 1-(1,3-Dimethyl-1H-pyrazol-4-yl)-8-[5-(ethyl-methyl-amino)-pyridin-3-yl]-3-methyl-1,3-dihydro-imidazo[4,5-c]quinolin-2-one]",2 nM
7 nM,9 nM,11 nM,"CCn1cc(-n2c(=O)n(C)c3cnc4ccc(-c5cnc(F)c(NC)c5)cc4c32)c(C)n1 [Example 150.1, 1-(1-Ethyl-3-methyl-1H-pyrazol-4-yl)-8-(6-fluoro-5-methylamino-pyridin-3-yl)-3-methyl-1,3-dihydro-imidazo[4,5-c]quinolin-2-one]",1 nM
15 nM,14 nM,19 nM,"CCn1cc(-n2c(=O)n(C)c3cnc4ccc(-c5ccc(N(C)C)nc5)cc4c32)c(C)n1 [Example 4.2, 8-(6-Dimethylamino-pyridin-3-yl)-1-(1-ethyl-3-methyl-1H-pyrazol-4-yl)-3-methyl-1,3-dihydro-imidazo[4,5-c]quinolin-2-one]",7 nM
10 nM,14 nM,11 nM,"CNC(=O)c1ccc(-c2ccc3ncc4c(c3c2)n(-c2cn(C)nc2C)c(=O)n4C)cc1 [Example 43.1, 4-[1-(1,3-Dimethyl-1H-pyrazol-4-yl)-3-methyl-2-oxo-2,3-dihydro-1H-imidazo[4,5-c]quinolin-8-yl]-N-methyl-benzamide]",3 nM
6 nM,8 nM,38 nM,"CCOc1cc(-c2ccc3ncc4c(c3c2)n(-c2cn(CCO)nc2C)c(=O)n4C)cnc1C [Example 211.2, 8-(5-Ethoxy-6-methyl-pyridin-3-yl)-1-[1-(2-hydroxy-ethyl)-3-methyl-1H-pyrazol-4-yl]-3-methyl-1,3-dihydro-imidazo[4,5-c]quinolin-2-one]",11 nM
22 nM,30 nM,38 nM,"COCCOc1ccc(-c2ccc3ncc4c(c3c2)n(-c2cn(C)nc2C)c(=O)n4C)cc1OC [Example 30.1, 1-(1,3-Dimethyl-1H-pyrazol-4-yl)-8-[3-methoxy-4-(2-methoxy-ethoxy)-phenyl]-3-methyl-1,3-dihydro-imidazo[4,5-c]quinolin-2-one]",14 nM
11 nM,< 5 nM,8 nM,"Cc1ncc(-c2ccc3ncc4c(c3c2)n(-c2cn(C)nc2Cl)c(=O)n4C)cc1N [Example 88.1, 8-(5-Amino-6-methyl-pyridin-3-yl)-1-(3-chloro-1-methyl-1H-pyrazol-4-yl)-3-methyl-1,3-dihydro-imidazo[4,5-c]quinolin-2-one]",2 nM
